Assay results as given in US20240115557A1, “INHIBITORS OF RNA-GUIDED NUCLEASES AND USES THEREOF” (The Brigham and Women's Hospital, Inc., priority 2022, published 2024).

Tests used:
[1] = target: SpCas9:gRNA (Streptococcus pyogenes serotype M1, UniProt Q99ZW2); assay: Photo-crosslinking to purified SpCas9:gRNA; format: binding; conditions: 1 μM probe, 1 μM SpCas9:gRNA, UV 365 nm
Protocol: Cas9 RNP complex was formed by mixing Cas9 (1 μM) and the eGFP-targeting gRNA (1 μM) in a binding buffer (HEPES 20 mM, KCl 100 mM, pH 7.6) for 15 min. Next, BRD7586 (5 μM) was added to the mixture when competition is required (the last lane of FIG. 68B). Finally, Diazirine-BRD7586 was added (1 μM) and the mixture was incubated for 20 min at RT with a final reaction volume of 20 μL in a PCR tube. The mixture was irradiated with UV (365 nm) for 5 min on ice, then 2.5 μL of 10% RapiGest SF solution in PBS was added. Click chemistry was initiated by adding 100 μM of TAMRA-azide (Sigma #760757), 350 μM of Cu-TBTA, and 1.5 mM ascorbate with a final reaction volume of 27 μL. The reaction was conducted for 1 h at 30° C., then SDS-PAGE was performed immediately. The fluorescence gel scanning was conducted using an Azure 600 (Azure Biosystem) to detect the TAMRA fluorescence.

[2] = target: SpCas9 (Streptococcus pyogenes serotype M1, UniProt Q99ZW2); assay: T7E1 assay for indels at the eGFP gene; format: cell-based; conditions: U2OS.eGFP.PEST, 24 h
Protocol: FIG. 72A-72E Validation of BRD7586 in cells FIG. 72A T7E1 assay for detecting indels at the eGFP gene. U20S.eGFP.PEST cells were nucleofected with plasmid and incubated with BRD7586 for 24 h. Blue arrowheads indicate uncleaved DNA and black arrowheads indicate cleaved DNA. FIG. 72B T7E1 for detecting indels at the eGFP gene. U20S.eGFP.PEST cells were nucleofected with RNP and incubated with BRD7586 for 24 h. Blue arrowheads indicate uncleaved DNA and black arrowheads indicate cleaved DNA FIG. 72C Inhibition of SpCas9 by BRD0539 and BRD7586 in the eGFP disruption assay using plasmid delivery method and RNP delivery method (U20S.eGFP.PEST cells, 24 h). Error bars represent SD from 3 or 4 independent experiments. […]
FIG. 75A-75E Mechanism of action studies of BRD7586 FIG. 75A Workflow of the chemoproteomics experiments using the diazirine-based photo-crosslinking probe to identify binding sites of BRD7586 on SpCas9 FIG. 75B T7E1 assay for measuring the activity of Diazirine-BRD7586. […] Blue arrowheads indicate uncleaved DNA while black arrowheads indicate cleaved DNA from the T7E1 reaction FIG. 75C Chemical structure of the acid-cleavable and isotope-coded biotin-azide used for chemoproteomics experiments FIG. 75D Structure of the peptide-compound conjugates to be detected from the mass spectrometry. […]

SpCas9:gRNA, sequence (Q99ZW2 whole entry): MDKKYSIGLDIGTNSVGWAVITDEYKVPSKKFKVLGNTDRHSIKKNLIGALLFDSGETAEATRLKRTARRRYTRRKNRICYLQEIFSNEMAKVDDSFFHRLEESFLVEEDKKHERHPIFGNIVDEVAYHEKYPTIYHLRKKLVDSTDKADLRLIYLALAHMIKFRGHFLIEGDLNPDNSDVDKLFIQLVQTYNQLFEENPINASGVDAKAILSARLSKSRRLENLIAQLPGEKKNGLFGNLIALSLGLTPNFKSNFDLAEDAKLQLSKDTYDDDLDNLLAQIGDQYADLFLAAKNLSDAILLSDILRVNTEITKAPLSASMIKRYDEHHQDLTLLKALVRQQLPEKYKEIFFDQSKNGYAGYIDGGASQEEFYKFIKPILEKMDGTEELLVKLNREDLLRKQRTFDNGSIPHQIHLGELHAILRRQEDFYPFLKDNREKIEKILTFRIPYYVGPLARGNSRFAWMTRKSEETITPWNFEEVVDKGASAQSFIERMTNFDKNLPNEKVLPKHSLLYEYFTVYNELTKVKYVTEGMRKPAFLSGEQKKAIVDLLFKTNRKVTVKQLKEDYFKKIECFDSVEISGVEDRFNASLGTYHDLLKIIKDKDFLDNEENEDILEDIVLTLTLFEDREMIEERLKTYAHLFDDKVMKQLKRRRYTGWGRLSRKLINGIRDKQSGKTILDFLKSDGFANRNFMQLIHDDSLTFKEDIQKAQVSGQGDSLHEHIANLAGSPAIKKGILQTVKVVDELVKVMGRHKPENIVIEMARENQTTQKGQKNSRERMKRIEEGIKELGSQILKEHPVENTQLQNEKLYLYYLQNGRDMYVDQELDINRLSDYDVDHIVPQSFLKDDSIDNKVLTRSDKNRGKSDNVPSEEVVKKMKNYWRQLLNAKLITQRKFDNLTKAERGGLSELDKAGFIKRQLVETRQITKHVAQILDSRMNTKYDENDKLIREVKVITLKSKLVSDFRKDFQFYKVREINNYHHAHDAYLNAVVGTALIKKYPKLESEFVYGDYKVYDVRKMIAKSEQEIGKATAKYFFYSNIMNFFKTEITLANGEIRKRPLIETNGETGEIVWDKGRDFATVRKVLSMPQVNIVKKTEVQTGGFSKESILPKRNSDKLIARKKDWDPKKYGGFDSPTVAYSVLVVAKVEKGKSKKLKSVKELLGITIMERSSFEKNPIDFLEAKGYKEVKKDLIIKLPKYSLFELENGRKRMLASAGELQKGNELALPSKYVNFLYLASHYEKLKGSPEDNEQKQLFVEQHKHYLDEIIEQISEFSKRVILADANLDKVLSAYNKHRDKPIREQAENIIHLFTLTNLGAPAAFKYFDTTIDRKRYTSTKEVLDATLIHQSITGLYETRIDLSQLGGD
SpCas9, sequence (Q99ZW2 whole entry): as above

With `C#CCCC1(CCOc2ccc(S(=O)(=O)CCC(=O)Nc3nc(-c4ccncc4)cs3)cc2)N=N1` [diazirine-BRD7586] the “Photo-crosslinking to SpCas9” value [1] was “successful covalent conjugation of the probe to SpCas9” and the “Inhibition of SpCas9 in cells by probe” value [2] was “inhibited SpCas9 in cells”.
